Experimental data as given in patent EP1057829A1, “Novel compounds and pharmaceutical compositions containing the same” (The Jordanian Pharmaceutical Manufacturing and Medical …, priority 1999, dated 2000).

How the values were obtained:
Type in all cases: in vivo
male rats = test: Penile erection of male rats after oral administration, observed for 2 h; settings: for ED50: Rattus norvegicus, 2 h, erectile response, ED50 values significantly different with a 95% confidence interval, read-out: Calculated ED50; for responding rats # / responding rats %: 10 rats tested, penile erection monitored during 2 h
Method: The purpose of this study was to compare the biological activity of compound 7a with that of sildenafil. In particular, the respective ED50-value (ED=effective dose), erection episodes and penile erection indices of said compounds in the treatment of male rats were determined. The penile erection index is an established means of determining the erection promoting properties of a substance (see e.g. Ang, H.H., Sim, M.K., Pharm. Sci., 3, 117-119 (1997) and references cited therein).
In these experiments, the compounds 7a and sildenafil were administered to male rats orally. The doses used for both drugs were 0.0781, 0.1562, 0.3125 and 0.625 mg/kg body weight. Sildenafil was dissolved in distilled water, whereas 7a was dissolved in 1% HCl solution (aq). Control animals were administered with the vehicles only, i.e. distilled water or the 1% HCl solution. During the experiments, the rats were placed in glass cages for observation and had access to food and water. During 2 h after administration of the investigated compounds, the penile erection of the rats was monitored.

[1] = Preliminary toxicity studies in rats; settings: rat, in vivo, read-out: tolerated dose without any detrimental effects
Method: (§1) Moreover, according to preliminary toxicity studies in rats, the compound 7a is tolerated up to a dose of about […] body weight without any detrimental effects. […] Thus, high doses of 7a provide a particularly efficient means for treatment of erectile dysfunction.

rats = test: Preliminary toxicity studies in rats
Method: as §1

## CCCc1nn(C)c2c(=O)[nH]c(-c3cc(S(=O)(=O)N4CCN(C)CC4)cc4c3OCC4)nc12 [Compound 7a, 5-[2,3-dihydro-5-(4-methylpiperazin-1-ylsulfonyl)-7-benzofuryl]-1-methyl-3-propyl-6,7-dihydro-1H-pyrazolo[4,3-d]pyrimidin-7-one]
Male rats; male rats
  ED50: 0.247 mg/kg
Male rats; dose 0.0781 mg/kg
  responding rats #: 3
  responding rats %: 30%
Male rats; dose 0.1562 mg/kg
  responding rats #: 4
  responding rats %: 40%
Male rats; dose 0.3125 mg/kg
  responding rats #: 4
  responding rats %: 40%
Male rats; dose 0.6250 mg/kg
  responding rats #: 8
  responding rats %: 80%
Male rats; male rats, 0.0781-0.625 mg/kg, comparison with sildenafil (Fig. 1)
  total number of observed erection episodes: superior to sildenafil, especially at higher doses
Male rats; male rats, 0.0781-0.625 mg/kg, comparison with sildenafil (Fig. 2)
  calculated penile erection indices: superior to sildenafil, especially at higher doses
[1]
  NOAEL: ~0.35 mg/kg
rats
  toxicity and side-effects: completely nontoxic and free from undesirable side-effects

## CCCc1nn(C)c2c(=O)[nH]c(-c3cc(S(=O)(=O)N4CCN(C)CC4)ccc3OCC)nc12 [Sildenafil, sildenafil, reference compound]
Male rats; male rats
  ED50: 0.284 mg/kg
Male rats; dose 0.0781 mg/kg
  responding rats #: 3
  responding rats %: 30%
Male rats; dose 0.1562 mg/kg
  responding rats #: 3
  responding rats %: 30%
Male rats; dose 0.3125 mg/kg
  responding rats #: 5
  responding rats %: 50%
Male rats; dose 0.6250 mg/kg
  responding rats #: 7
  responding rats %: 70%
